Experimental data reported in patent US20240269139A1, “COMPOUNDS FOR TARGETED PROTEIN DEGRADATION OF KINASES” (DANA-FARBER CANCER INSTITUTE, INC., priority 2020, published 2024).
Like-named read-outs stand apart in the source and are kept apart here.

Experiments:
[1] = target: protein kinases (human kinome) (Homo sapiens, UniProt Q15119); format: cell-based; conditions: for logFC PDK2: Accession Q15119-1
[2] = target: T1, protein kinases (human kinome) (Homo sapiens, UniProt Q969Z0); format: cell-based; conditions: Accession Q969Z0-1, direction down
T1 sequence (Q969Z0 108-631): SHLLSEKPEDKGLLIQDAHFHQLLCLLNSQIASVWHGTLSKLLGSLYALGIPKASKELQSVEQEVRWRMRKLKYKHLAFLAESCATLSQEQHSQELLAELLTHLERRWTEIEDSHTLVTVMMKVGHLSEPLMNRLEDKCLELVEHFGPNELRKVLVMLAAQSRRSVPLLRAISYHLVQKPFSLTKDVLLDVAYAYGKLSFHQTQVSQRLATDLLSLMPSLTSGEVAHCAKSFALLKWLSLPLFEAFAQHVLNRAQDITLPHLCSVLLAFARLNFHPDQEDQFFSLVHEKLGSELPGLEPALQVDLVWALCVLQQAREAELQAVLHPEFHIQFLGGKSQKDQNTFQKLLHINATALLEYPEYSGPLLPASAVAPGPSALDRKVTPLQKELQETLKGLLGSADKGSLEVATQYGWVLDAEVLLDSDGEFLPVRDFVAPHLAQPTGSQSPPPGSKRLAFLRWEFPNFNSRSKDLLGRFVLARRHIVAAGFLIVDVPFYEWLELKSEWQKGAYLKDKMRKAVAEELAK

Compound: CC(C)(C)c1nc(-c2cccc(NS(=O)(=O)c3c(F)cccc3F)c2F)c(-c2ccnc(NCCOCCNC(=O)CCOCCOCCNc3cccc4c3C(=O)N(C3CCC(=O)NC3=O)C4=O)n2)s1 (stereo not shown) [DD.03.106]
- logFC PDK2 (Q15119-1) ([1]; experiment wp147, 4 uM): −0.727
- logFC TBRG4 ([2]; experiment wp147, 4 uM): −0.7514

Compound: CC(C)(C)c1nc(-c2cccc(NS(=O)(=O)c3c(F)cccc3F)c2F)c(-c2ccnc(NCCOCCNC(=O)CCOCCOCCNc3cccc4c3CN(C3CCC(=O)NC3=O)C4=O)n2)s1 (stereo not shown) [DD.03.107]
- logFC PDK2 ([1]; experiment wp137): −0.3383
- logFC PDK2 ([1]; experiment wp147, 1 uM): −0.4963
- logFC PDK2 ([1]; experiment wp147, 2 uM): −0.5351
- logFC PDK2 ([1]; experiment wp147, 4 uM): −0.9269
- logFC PDK2 (Q15119-1) ([1]; experiment wp137): −0.3383
- logFC PDK2 (Q15119-1) ([1]; experiment wp147, 1 uM): −0.4963
- logFC PDK2 (Q15119-1) ([1]; experiment wp147, 2 uM): −0.5351
- logFC PDK2 (Q15119-1) ([1]; experiment wp147, 4 uM): −0.9269
- logFC TBRG4 ([2]; experiment wp147, 1 uM): −0.6245
- logFC TBRG4 ([2]; experiment wp147, 2 uM): −0.6284
- logFC TBRG4 ([2]; experiment wp147, 4 uM): −1.105

Compound: O=C(COc1cccc2c1C(=O)N(C1CCC(=O)NC1=O)C2=O)NCCCCCCCC(=O)NC1(c2ccc(-c3nc4ccn5c(=O)[nH]nc5c4cc3-c3ccccc3)cc2)CCC1 (stereo not shown) [INY.01.140.1]
- logFC PDK2 ([1]; experiment wp081): −0.6094
- logFC PDK2 (Q15119-1) ([1]; experiment wp081): −0.6094
- logFC TBRG4 ([2]; experiment wp081): −0.4208

Compound: CC(C)S(=O)(=O)c1ccccc1Nc1nc(Nc2ccc(N3CCN(CCOCCOCCNC(=O)CNc4cccc5c4C(=O)N(C4CCC(=O)NC4=O)C5=O)CC3)cc2)ncc1Cl (stereo not shown) [TL12.186]
- logFC PDK2 ([1]; experiment wp137): −0.5022
- logFC PDK2 (Q15119-1) ([1]; experiment wp137): −0.5022
- logFC TBRG4 ([2]; experiment wp137): −0.3425
